Experimental data as given in US20140242093A1, “METHODS AND COMPOSITIONS FOR MODULATING THE INNATE IMMUNE RESPONSE AND/OR MYOGENESIS IN A MAMMALIAN SUBJECT” (FRED HUTCHINSON CANCER RESEARCH CENTER, priority 2011, published 2014).

System: control human primary myoblasts
Assay: Expression microarray of primary myoblasts transduced with lentivirus carrying DUX4-fl, DUX4-s or GFP
Experimental: Primary human myoblasts were collected and cultured as previously described (Snider et al., 2010). Primary myoblasts were maintained at or below 70% confluency for proliferation. For differentiation, cells were allowed to reach 95-100% confluency in growth medium. Once confluency was reached, the cells were changed to differentiation medium (F10 media supplemented with 1% horse serum, 10 μg/mL insulin, and 10 μg/mL transferrin, penicillin/streptomycin) and maintained for 4 days. Human RD cells were grown in DMEM in 10% bovine calf serum (Hyclone) and penicillin/streptomycin. The primary myoblasts were transduced with lentivirus carrying DUX-fl, DUX4- or GFP (MOI=15).
Expression microarrays were performed on the transduced cells at 24 hours after transduction as follows. […] Samples were analyzed by Illumina Human Whole Genome microarrays. Probe intensities were corrected, normalized, and summarized by the Lumi package of Bioconductor (Du et al., 2008). Differentially expressed genes were identified by the LIMMA package of Bioconductor (Wettenhall and Smyth, 2004). Gene set enrichment analysis (GSEA) was performed using the Bioconductor GOstats package (Falcon and Gentleman, 2007).

DUX4-fl: full-length DUX4 protein (SEQ ID NO:110), expressed from lentiviral or pCS2 vectors or in vitro translated
fc of MYPOP (expression array) (Refseq NM_001012643.2): −1.053
PRAMEF5 expression fc (Refseq NM_001013407.1): 7.35
HNRNPCL1 expression fc (Refseq NM_001013631.1): 3.484
RFPL4B expression fc (Refseq NM_001013734.2): 8.34
ODF3B fc (Refseq NM_001014440.2): −1.1
DNAJC25 expression fc (Refseq NM_001015882.2): 1.995
KCNK2 fc (Refseq NM_001017425.2): −1.154
CCDC58 expression fc (Refseq NM_001017928.2): 2.001
fc of ATP6AP1L (expression array) (Refseq NM_001017971.1): −1.049
SH3PXD2B fc (Refseq NM_001017995.1): −1.101
ZBTB16 expression fc (Refseq NM_001018011.1, cultured human skeletal muscle): −2.037
fc of SERBP1 (expression array) (Refseq NM_001018069.1): −0.241
SOD2 expression fc (Refseq NM_001024466.1, cultured human skeletal muscle): −4.617
fc of RUNX2 (expression array) (Refseq NM_001024630.2): −1.019
CLK1 expression fc (Refseq NM_001024646.1): 1.84
fc of TGFBR2 (expression array) (Refseq NM_001024847.1): −1.017
TSPAN4 fc (Refseq NM_001025235.1): −1.175
fc of RFX5 (expression array) (Refseq NM_001025603.1): −1.052
PSRC1 fc (Refseq NM_001032290.1): −1.126
OAS1 expression fc (Refseq NM_001032409.1, cultured human skeletal muscle): −4.607
ENTPD8 expression fc (Refseq NM_001033113.1): 4.073
RHOT1 fc (Refseq NM_001033566.1): −1.074
CYFIP2 fc (Refseq NM_001037333.1): −1.081
fc of PHYH (expression array) (Refseq NM_001037537.1): −1.007
fc of EFEMP1 (expression array) (Refseq NM_001039348.1): −1.03
PRAMEF10 expression fc (Refseq NM_001039361.1): 6.064
ETNK1 expression fc (Refseq NM_001039481.1): 1.892
LOC440053 expression fc (Refseq NM_001039615.1): 3.919
CBLN3 fc (Refseq NM_001039771.2): −1.144
HEY1 expression fc (Refseq NM_001040708.1): 2.18
fc of UHRF1 (expression array) (Refseq NM_001048201.1): −0.2091
DBNDD2 expression fc (Refseq NM_001048223.1): 2.987
NCOR2 fc (Refseq NM_001077261.1): −1.177
fc of NFKB2 (expression array) (Refseq NM_001077493.1): −1.011
fc of SLC29A1 (expression array) (Refseq NM_001078174.1): −0.5111
DYNC2H1 expression fc (Refseq NM_001080463.1): 3.721
PRAMEF12 expression fc (Refseq NM_001080830.1): 7.802
FRG2B expression fc (Refseq NM_001080998.1): 1.993
DEFB103A expression fc (Refseq NM_001081551.2): 6.442
CPSF4 fc (Refseq NM_001081559.1): −1.171
fc of GPD2 (expression array) (Refseq NM_001083112.1): −0.3652
fc of GPR1 (expression array) (Refseq NM_001098199.1): −1.054
HLA-F expression fc (Refseq NM_001098479.1, cultured human skeletal muscle): −1.932
RFPL3 expression fc (Refseq NM_001098535.1): 8.144
PRR4 expression fc (Refseq NM_001098538.1): 3.562
FAM156B fc (Refseq NM_001099684.1): −1.113
PRAMEF19 expression fc (Refseq NM_001099790.1): 2.336
PRAMEF20 expression fc (Refseq NM_001099852.1): 4.795
PRAMEF14 expression fc (Refseq NM_001099854.1): 3.186
PRAMEF21 expression fc (Refseq NM_001100114.1): 2.487
LOC729384 expression fc (Refseq NM_001105522.1): 6.832
KHDC1L expression fc (Refseq NM_001126063.2): 8.012
CSAG3 expression fc (Refseq NM_001129826.1): 5.871
LOC399940 expression fc (Refseq NM_001136118.1): 4.727
LOC440563 expression fc (Refseq NM_001136561.1): 5.312
FAM90A7 expression fc (Refseq NM_001136572.1): 3.199
CYCSL1 expression fc (Refseq NR_001561.1): 2.506
MGC10997 expression fc (Refseq NR_001565.1): 2.426
FTHL3 expression fc (Refseq NR_002201.1, cultured human skeletal muscle): −2.577
FTHL11 expression fc (Refseq NR_002204.1, cultured human skeletal muscle): −2.085
FTHL12 expression fc (Refseq NR_002205.1, cultured human skeletal muscle): −1.948
RPPH1 expression fc (Refseq NR_002312.1): 2.037
RFPL1S expression fc (Refseq NR_002727.1): 8.396
SNORD56 expression fc (Refseq NR_002739.1): 1.855
fc of TRIM78P (expression array) (Refseq NR_002777.2): −0.9991
HNRPA1L-2 expression fc (Refseq NR_002944.2): 1.921
RMRP expression fc (Refseq NR_003051.2): 2.267
fc of LOC400759 (expression array) (Refseq NR_003133.1): −0.7622
HNRPDL expression fc (Refseq NR_003249.1): 2.175
SDHALP1 expression fc (Refseq NR_003264.1): 3.276
RN5S9 expression fc (Refseq NR_023371.1): 4.191
KIAA0114 expression fc (Refseq NR_024031.1): 1.841
NCRNA00092 expression fc (Refseq NR_024129.1): 2.395
MIR503 expression fc (Refseq NR_030228.1): 1.91
MIR2278 expression fc (Refseq NR_031755.1): 2.412
USP41 fc (Refseq XM_036729.5): −1.127
TRIM64 expression fc (Refseq XM_061890.11): 4.943
LOC136157 expression fc (Refseq XM_069743.3): 8.299
LOC196120 expression fc (Refseq XM_114987.3): 8.179
LOC646066 expression fc (Refseq XM_116384.2): 4.391
LOC284428 expression fc (Refseq XM_208203.5): 8.023
LOC285697 expression fc (Refseq XM_210642.1): 3.783
LOC342934 expression fc (Refseq XM_292724.5): 2.988
LOC340096 expression fc (Refseq XM_293943.2): 7.382
LOC389633 expression fc (Refseq XM_372030.4): 1.807
LOC390031 expression fc (Refseq XM_372343.1): 8.331
LOC390530 fc (Refseq XM_372543.2): −1.104
LOC391045 expression fc (Refseq XM_372780.3): 2.166
LOC391092 expression fc (Refseq XM_372792.2): 1.837
LOC391742 expression fc (Refseq XM_373056.1): 5.733
LOC391747 expression fc (Refseq XM_373059.2): 2.789
LOC391761 expression fc (Refseq XM_373073.2): 3.009
LOC391764 expression fc (Refseq XM_373076.3): 5.821
LOC391766 expression fc (Refseq XM_373077.2): 5.724
LOC391767 expression fc (Refseq XM_373078.1): 5.492
LOC399937 expression fc (Refseq XM_374917.3): 1.841
LOC399939 expression fc (Refseq XM_374919.3): 6.931
LOC401860 expression fc (Refseq XM_377445.3): 4.272
LOC402199 expression fc (Refseq XM_377875.2): 4.392
LOC646103 expression fc (Refseq XM_377879.3): 4.658
LOC402207 expression fc (Refseq XM_377884.2): 4.903
LOC440040 expression fc (Refseq XM_495873.4): 7.534
FAM90A9 expression fc (Refseq XM_496956.4): 2.248
FAM90A12 expression fc (Refseq XM_496961.3): 1.774
LOC441584 expression fc (Refseq XM_497258.1): 7.781
LOC441019 expression fc (Refseq XM_498969.2, cultured human skeletal muscle): −2.107
PEG10 expression fc (Refseq XM_499343.2): 1.935
LOC642362 expression fc (Refseq XM_925891.1): 8.016
LOC642538 expression fc (Refseq XM_926027.2): 1.792
LOC653111 expression fc (Refseq XM_926073.2): 3.139
LOC642843 expression fc (Refseq XM_926241.2): 2.728
LOC653192 expression fc (Refseq XM_926437.2): 8.228
LOC653194 expression fc (Refseq XM_926449.1): 3.633
LOC643731 expression fc (Refseq XM_927019.1): 1.903
LOC653506 fc (Refseq XM_927769.1): −1.144
LOC645137 expression fc (Refseq XM_928167.2): 2.323
fc of LOC653583 (expression array) (Refseq XM_928224.2): −1.02
LOC645373 expression fc (Refseq XM_928412.1): 2.891
LOC645558 expression fc (Refseq XM_928577.2): 4.803
LOC645669 expression fc (Refseq XM_928680.1): 8.202
LOC653656 expression fc (Refseq XM_928688.3): 7.897
LOC653657 expression fc (Refseq XM_928697.2): 7.857
LOC646698 expression fc (Refseq XM_929644.2): 6.012
LOC646754 expression fc (Refseq XM_929704.2): 5.11
LOC646914 expression fc (Refseq XM_929877.1): 2.569
fc of LOC338758 (expression array) (Refseq XM_931359.2): −1.005
LOC644739 fc (Refseq XM_933679.1): −1.165
LOC642127 expression fc (Refseq XM_936272.2): 6.112
LOC642219 expression fc (Refseq XM_936370.2): 4.799
LOC285299 expression fc (Refseq XM_936463.2): 2.84
fc of BEXL1 (expression array) (Refseq XM_936467.2): −1.018
LOC653978 expression fc (Refseq XM_937424.1): 3.554
LOC646508 expression fc (Refseq XM_937570.1): 2.498
LOC648533 expression fc (Refseq XM_937587.1): 2.284
LOC342933 expression fc (Refseq XM_938208.2): 3.752
PRAMEF17 expression fc (Refseq XM_938420.2): 4.223
fc of LOC649425 (expression array) (Refseq XM_938508.1): −0.2065
LOC649563 expression fc (Refseq XM_938635.2): 2.425
LOC650167 expression fc (Refseq XM_939249.1): 3.363
LOC654101 expression fc (Refseq XM_939354.1): 5.034
MGC61598 expression fc (Refseq XM_939432.1): 2.969
LOC651308 expression fc (Refseq XM_940443.1): 8.169
ZC3H5 fc (Refseq XM_940903.2): −1.155
LOC651816 expression fc (Refseq XM_941060.1): 1.836
LOC652080 expression fc (Refseq XM_941404.1): 1.987
LOC652349 expression fc (Refseq XM_941777.1): 2.835
LOC652433 expression fc (Refseq XM_941875.1): 3.022
LOC651390 expression fc (Refseq XM_942401.1): 1.937
LOC727846 expression fc (Refseq XM_001126140.1): 2.175
LOC730278 fc (Refseq XM_001126471.1): −1.092
PARP10 expression fc (Refseq XM_001127571.1, cultured human skeletal muscle): −2.064
fc of LOC730996 (expression array) (Refseq XM_001128017.1): −0.2204
LOC342900 expression fc (Refseq XM_001129035.1): 7.391
LOC729368 expression fc (Refseq XM_001130065.2): 5.416
LOC729458 expression fc (Refseq XM_001130308.2): 8.247
LOC729694 expression fc (Refseq XM_001131061.1): 4.029
LOC729698 expression fc (Refseq XM_001131072.1): 3.539
LOC729700 expression fc (Refseq XM_001131081.1): 4.817
LOC729706 expression fc (Refseq XM_001131091.1): 4.227
LOC729724 expression fc (Refseq XM_001131132.1): 3.038
LOC729731 expression fc (Refseq XM_001131140.1): 5.007
